How the values were obtained:
CD-1 mice = assay: Single increasing dose tolerability in CD-1 mice, IP; format: in vivo, mouse; settings: CD-1 mice, single IP doses at or below 80 mg/Kg
Description: (§1) RA475 in 25% β-hydroxy propyl cyclodextrin in water was administered at increasing single doses to CD-1 mice (n = 3/group) via intraperitoneal injection.

[1] = as above; format: in vivo, mouse; settings: CD-1, mouse, in vivo; mice, single dose, IP
Description: as §1

[2] = Stability in liver microsomes (species not separated in text); format: in vitro ADME
Description: Human and mouse liver microsomes and NADPH regenerating system solutions were purchased from Corning Life Sciences (Tewsbury, MA). Human and mouse K2EDTA-treated plasma was purchased from BioIVT (Westbury, NY). Metabolic studies in liver microsomes (0.125 mg/mL) were conducted in 1x PBS (pH 7.4), NADPH-generating system, and 10 μM RA475 in a final volume of 250 μL. An incubation mixture with or without NADPH-generating system, as well as a neat solution prepared without microsomes and NADPH-generating system was used. RA475 was added at the same concentration level into human and mouse EDTA plasma. All reactions were initiated with the addition of RA475. Incubations were performed in glass tubes maintained at 37°C in a shaker bath. At 0, 30, and 60 min, 10 μL samples were withdrawn from the reaction mixture, and 0.5 mL of acetonitrile containing internal standard was added to each. Samples were vortex-mixed and subjected to centrifugation for 5 min at 1430 x g. A 10 μL aliquot of the supernatant was injected onto the LC-MS/MS instrument for qualitative analysis using a temperature-controlled autosampling device operating at 5°C (See Pharmacokinetic section).

MDA-MB-468 cells = assay: Surface Annexin V display by flow cytometry, MDA-MB-468; format: cell-based; settings: MDA-MB-468, 12 h; RA475 1 or 2 μM, ixazomib 1 μM
Description: The percentage of cells initiating apoptosis was assessed with the annexin V FITC assay kit. The cells (2 × 10^5 cells/well) were treated with the described compounds at selected concentrations for 12 h or 16 h, as indicated. The cells were then collected, washed with PBS, resuspended in 100 μL of annexin V-FITC and 7-AAD dual-stain solution (3 μL Annexin V and 3 μL 7AAD, Catalog Number; 559763-BD bioscience), and incubated 20 min in the dark. The samples were then analyzed via flow cytometry using FlowJo V10 software. All experiments were repeated three times.
Supplementary file pone.0305710.s006.tif: S6 Fig RA475 induced apoptosis in a triple negative breast cancer cell line. […] (TIF)

[3] = test system: spontaneous genetically-engineered peritoneal tumor (shp53, AKT, c-Myc); assay: Spontaneous GEMM of primary peritoneal/ovarian cancer; format: in vivo, mouse; settings: C57BL/6
Description: To induce IP tumor formation in immunocompetent mice, oncogenes (shp53, AKT, c-Myc), luciferase and the Sleeping Beauty (SB) transposase (10 μg/plasmid) were diluted in 500 μL of PBS and injected IP into female C57BL/6 mice. The mice were anesthetized by intramuscular injection of 50–100μL of a cocktail of ketamine 16 mg/mL / 3 mg/mL xylazine. The plasmid-injected mice were electroporated (EP) by the BTX ECM 830 square wave EP generator (BTX) (5 pulses, 200 V for 100 ms/pulse, 100 ms intervals between each pulse) with the caliper electrode (BTX) held across the waist of mouse. The mice were followed by IVIS imaging weekly for tracking tumor growth. The mice were sacrificed when the bioluminescence signal reached 10^9 photons/sec/cm^2/sr, or had enlarged abdomens due to the production of ascites, or had health conditions and/or criteria under which early euthanasia was required by the protocol. To track peritoneal tumor growth, bioluminescence imaging was performed by the IVIS Spectrum2000 (PerkinElmer) as the plasmid expressing SB transposase also produces luciferase. Briefly, the mice were injected IP with D-luciferin (GoldBio). After 10 min, the mice were anesthetized with isoflurane, and imaged by the IVIS Spectrum under the auto exposure mode. Bioluminescence in the peritoneal region was quantified as total photon counts/sec/cm^2/sr using Living Image 3.0 Software (Perkin Elmer).
GEMM better mimic the spontaneous development of cancers in an immune competent host than transplantable tumor lines. Female C57BL/6 mice were co-injected IP with sleeping beauty vector and plasmids expressing carrying shp53, AKT, c-Myc and firefly luciferase genes, followed by electroporation (EP) to deliver these plasmid DNA into the peritoneal cavity cells wherein they integrate randomly into their genome. After 7 days mice were imaged by IVIS200 for bioluminescence and randomized. Four groups (n = 8) were treated IP with vehicle or RA475 (40mg/kg, IP, every 3 days) or Cisplatin (5 mg/Kg, once a week) or the combination of RA475 (40mg/Kg, IP, every 3 days) plus Cisplatin (5 mg/Kg, once a week). […] While cisplatin reduced tumor growth, it led to severe toxicity including weight loss >20% that was not evident with RA475 alone.
Fig 7 Administration of RA475, cisplatin or the combination to mice bearing spontaneous, genetically-engineered model ovarian/peritoneal cancer. Female C57BL/6 mice were co-injected IP with sleeping beauty vector and plasmids expressing carrying shp53, AKT, c-Myc and firefly luciferase genes, followed by electroporation (EP) to deliver these plasmid DNA into the peritoneal cavity cells wherein they integrate randomly into their genome. After 7 days mice were imaged by Xenogen IVIS200 for bioluminescence and randomized. […]

[4] = RA475 40 mg/kg IP every 3 days (12 doses), cisplatin 5 mg/Kg weekly (5 doses alone, 3 in combination)

Structure (SMILES): Cl.Cl.N#Cc1ccc(/C=C2/C(=O)/C(=C/c3ccc(C#N)cc3)C23CCN(C(=N)N)CC3)cc1 [RA475, 1,3-bis((E)-4-cyanobenzylidene)-2-oxo-7-azaspiro[3.5]nonane-7-carboximidamide dihydrochloride]
- adverse events, including weight loss (CD-1 mice): No evidence of adverse events
- NOAEL [1]: > 80 mg/kg
- present after 1 h in liver microsomes [2]: 93%
- apoptosis by surface Annexin V display (MDA-MB-468 cells): initiated apoptosis
- survival [3, 4]: extended survival to a similar extent as cisplatin alone
- tumor burden by bioluminescence [3, 4]: delayed but did not significantly reduce tumor burden
- weight loss ([3]; RA475 40 mg/kg IP every 3 days, cisplatin 5 mg/Kg weekly): not evident

From article PMC11239005, “Preclinical studies of RA475, a guanidine-substituted spirocyclic candidate RPN13/ADRM1 inhibitor for treatment of ovarian cancer” (PLOS ONE, 2024)
